Results as given in ChEMBL document CHEMBL5113463, “Discovery and preclinical evaluations of JBD0131, a novel nitrodihydro-imidazooxazole anti-tuberculosis agent” (Bioorg Med Chem Lett, 2022).
In brackets after ≈: the same amount, converted by molar mass.

How the values were obtained:
[1] = Metabolic stability in cynomolgus monkey liver microsomes assessed as half life; format: ADME, Macaca fascicularis, Microsome
[2] = Cmax in Beagle dog at 2 mg/kg, po; format: ADME, organism-based, Canis lupus familiaris; parameters: dose 2 mg/kg, route po; conditions: in vivo
[3] = Volume of distribution in Beagle dog at 0.5 mg/kg, iv; format: ADME, organism-based, Canis lupus familiaris; conditions: in vivo
[4] = tested on: Mycobacterium tuberculosis; assay: Antimycobacterial activity against Mycobacterium tuberculosis H37Rv assessed as bacterial growth inhibition incubated for 7 days by MABA assay; format: functional; conditions: 168 h, time 7 day
[5] = molecular target: T1, A-type voltage-gated potassium channel KCND3 (Homo sapiens, UniProt Q9UK17); assay: Inhibition of Kv4.3 (unknown origin)
T1 sequence (Q9UK17 whole entry): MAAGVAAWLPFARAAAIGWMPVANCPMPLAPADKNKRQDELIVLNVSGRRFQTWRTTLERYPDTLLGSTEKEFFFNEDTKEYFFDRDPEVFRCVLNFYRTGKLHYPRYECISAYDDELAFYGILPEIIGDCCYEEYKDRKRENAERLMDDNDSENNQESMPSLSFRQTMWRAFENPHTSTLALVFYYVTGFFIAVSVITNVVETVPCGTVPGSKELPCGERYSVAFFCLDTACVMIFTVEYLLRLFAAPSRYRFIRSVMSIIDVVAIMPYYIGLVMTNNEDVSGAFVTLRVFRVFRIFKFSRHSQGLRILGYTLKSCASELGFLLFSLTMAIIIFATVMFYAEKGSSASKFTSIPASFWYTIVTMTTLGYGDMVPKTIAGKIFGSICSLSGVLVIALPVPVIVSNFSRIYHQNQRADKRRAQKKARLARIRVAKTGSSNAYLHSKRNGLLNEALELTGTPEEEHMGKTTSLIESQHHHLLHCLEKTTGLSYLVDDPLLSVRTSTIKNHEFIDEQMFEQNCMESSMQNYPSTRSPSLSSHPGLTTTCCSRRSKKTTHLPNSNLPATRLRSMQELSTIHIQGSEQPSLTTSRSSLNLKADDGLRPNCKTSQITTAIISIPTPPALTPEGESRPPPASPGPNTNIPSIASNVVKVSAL

[6] = tested on: Mycobacterium tuberculosis; assay: In vivo antimycobacterial activity against Mycobacterium tuberculosis Erdman infected mouse chronic tuberculosis infection model assessed as reduction log10 CFU at 10 to 100 mg/kg for 4 weeks at 5 days/week administered after 31 days post infection relative to control; format: functional; conditions: dose 10-100 mg/kg
[7] = Aqueous solubility of compound at pH 7.4; format: physicochemical; conditions: buffer
[8] = Oral bioavailability in Beagle dog at 2 mg/kg; format: ADME, organism-based, Canis lupus familiaris; conditions: in vivo
[9] = Clearance in Sprague-Dawley rat at 1 mg/kg, iv; format: ADME, organism-based; conditions: in vivo
[10] = molecular target: Voltage-gated inwardly rectifying potassium channel KCNH2 (Homo sapiens, UniProt Q12809); assay: Inhibition of human ERG; format: toxicity
[11] = Apparent permeability across apical to basolateral side in dog MDCK cells; format: ADME, cell-based, Canis lupus familiaris
[12] = Drug distribution in Sprague-Dawley rat lung at 10 mg/kg, po administered as C14-lableled compound and assessed as radioactivity; format: ADME, organism-based; conditions: in vivo
[13] = Half life in CD-1 mouse at 0.6 mg/kg, iv; format: ADME, organism-based; conditions: in vivo
[14] = Metabolic stability in mouse liver microsomes assessed as half life; format: ADME, Microsome
[15] = Cmax in Sprague-Dawley rat at 4 mg/kg, po; format: ADME, organism-based; parameters: dose 4 mg/kg, route po; conditions: in vivo
[16] = Efflux ratio of apparent permeability across basolateral to apical over apical to basolateral membrane in dog MDCK cells; format: ADME, cell-based, Canis lupus familiaris
[17] = molecular target: Sodium channel protein type 5 subunit alpha (Homo sapiens, UniProt Q14524); assay: Inhibition of NaV 1.5 (unknown origin)
Chain of Sodium channel protein type 5 subunit alpha (Q14524 whole entry): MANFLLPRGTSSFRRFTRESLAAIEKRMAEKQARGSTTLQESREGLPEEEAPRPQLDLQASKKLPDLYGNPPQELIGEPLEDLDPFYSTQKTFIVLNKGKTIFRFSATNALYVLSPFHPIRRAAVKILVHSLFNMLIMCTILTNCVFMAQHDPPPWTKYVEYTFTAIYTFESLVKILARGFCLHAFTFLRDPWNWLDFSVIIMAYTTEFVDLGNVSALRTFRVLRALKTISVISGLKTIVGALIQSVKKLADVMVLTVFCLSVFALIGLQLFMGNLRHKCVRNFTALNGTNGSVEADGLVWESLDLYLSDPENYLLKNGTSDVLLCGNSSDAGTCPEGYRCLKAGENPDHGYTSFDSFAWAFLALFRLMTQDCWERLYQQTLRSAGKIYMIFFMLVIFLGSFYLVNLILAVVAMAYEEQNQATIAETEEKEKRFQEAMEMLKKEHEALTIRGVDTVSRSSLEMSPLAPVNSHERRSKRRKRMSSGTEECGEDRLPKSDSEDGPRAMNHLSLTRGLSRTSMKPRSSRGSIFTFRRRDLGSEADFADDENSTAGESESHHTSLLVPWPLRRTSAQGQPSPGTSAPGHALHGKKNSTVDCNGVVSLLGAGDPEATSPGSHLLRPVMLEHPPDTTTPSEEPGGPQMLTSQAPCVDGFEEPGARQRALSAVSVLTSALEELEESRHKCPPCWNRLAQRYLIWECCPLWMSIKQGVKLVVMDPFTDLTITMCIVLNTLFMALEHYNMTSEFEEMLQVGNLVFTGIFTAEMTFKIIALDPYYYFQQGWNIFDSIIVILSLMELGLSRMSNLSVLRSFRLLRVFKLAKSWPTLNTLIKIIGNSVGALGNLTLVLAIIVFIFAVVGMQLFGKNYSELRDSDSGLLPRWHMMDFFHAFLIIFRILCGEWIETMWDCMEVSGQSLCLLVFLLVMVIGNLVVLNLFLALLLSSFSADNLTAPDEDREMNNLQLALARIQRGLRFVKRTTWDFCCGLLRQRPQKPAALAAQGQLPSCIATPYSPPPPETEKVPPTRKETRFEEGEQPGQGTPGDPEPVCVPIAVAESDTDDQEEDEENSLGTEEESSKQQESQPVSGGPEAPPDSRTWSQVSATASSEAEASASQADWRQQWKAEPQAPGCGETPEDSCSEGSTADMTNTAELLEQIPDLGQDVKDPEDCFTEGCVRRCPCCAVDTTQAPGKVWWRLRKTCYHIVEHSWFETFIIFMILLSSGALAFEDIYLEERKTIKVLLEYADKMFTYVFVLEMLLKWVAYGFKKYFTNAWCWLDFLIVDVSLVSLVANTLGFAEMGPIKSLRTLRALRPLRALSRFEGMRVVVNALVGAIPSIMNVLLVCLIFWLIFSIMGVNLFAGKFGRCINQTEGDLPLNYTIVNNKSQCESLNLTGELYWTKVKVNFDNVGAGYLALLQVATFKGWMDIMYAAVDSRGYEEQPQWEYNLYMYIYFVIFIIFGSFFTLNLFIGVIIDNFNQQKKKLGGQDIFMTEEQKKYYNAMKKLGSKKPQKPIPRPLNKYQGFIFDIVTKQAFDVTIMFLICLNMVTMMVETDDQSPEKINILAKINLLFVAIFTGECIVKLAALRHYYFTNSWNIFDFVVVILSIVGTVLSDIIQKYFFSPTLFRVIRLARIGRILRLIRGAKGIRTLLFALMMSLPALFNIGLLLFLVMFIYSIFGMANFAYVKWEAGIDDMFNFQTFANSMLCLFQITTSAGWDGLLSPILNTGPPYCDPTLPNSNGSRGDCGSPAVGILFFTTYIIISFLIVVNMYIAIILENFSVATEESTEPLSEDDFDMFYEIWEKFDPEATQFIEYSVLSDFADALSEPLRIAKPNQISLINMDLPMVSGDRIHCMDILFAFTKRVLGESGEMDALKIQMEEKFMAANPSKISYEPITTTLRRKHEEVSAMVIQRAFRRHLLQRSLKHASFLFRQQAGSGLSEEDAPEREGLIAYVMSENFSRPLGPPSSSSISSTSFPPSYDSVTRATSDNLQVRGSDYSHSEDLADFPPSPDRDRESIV

[18] = tested on: Mycobacterium tuberculosis; assay: Antimycobacterial activity against Mycobacterium tuberculosis H37Rv assessed as bacterial growth inhibition incubated for 10 days under hypoxic condition followed by 28 hrs incubation under normoxic condition by Low-Oxygen-Recovery Assay; format: functional; conditions: 264 h, time 11 day
[19] = AUC (0-last) in Beagle dog at 2 mg/kg, po; format: ADME, organism-based, Canis lupus familiaris; conditions: in vivo
[20] = Apparent permeability across basolateral to apical side in dog MDCK cells; format: ADME, cell-based, Canis lupus familiaris
[21] = Volume of distribution in CD-1 mouse at 0.6 mg/kg, iv; format: ADME, organism-based; conditions: in vivo
[22] = Drug distribution in Sprague-Dawley rat liver at 10 mg/kg, po administered as C14-lableled compound and assessed as radioactivity; format: ADME, organism-based; conditions: in vivo
[23] = molecular target: Cytochrome P450 2D6 (Homo sapiens, UniProt P10635); assay: Inhibition of CYP2D6 (unknown origin); format: ADME
[24] = Plasma protein binding in dog assessed as bound fraction; format: ADME, cell-free, Canis lupus familiaris; conditions: read-out: PPB (converted)
[25] = tested on: Mycobacterium tuberculosis; assay: Antimycobacterial activity against Mycobacterium tuberculosis Erdman assessed as bacterial growth inhibition; format: functional
[26] = Mutagenicity in Salmonella typhimurium by Ames test; format: toxicity; conditions: salmonella enterica subsp. enterica serovar typhimurium; route au
[27] = molecular target: Cytochrome P450 3A4 (Homo sapiens, UniProt P08684); assay: Inhibition of CYP3A4 (unknown origin); format: ADME
Chain of Cytochrome P450 3A4 (P08684 whole entry): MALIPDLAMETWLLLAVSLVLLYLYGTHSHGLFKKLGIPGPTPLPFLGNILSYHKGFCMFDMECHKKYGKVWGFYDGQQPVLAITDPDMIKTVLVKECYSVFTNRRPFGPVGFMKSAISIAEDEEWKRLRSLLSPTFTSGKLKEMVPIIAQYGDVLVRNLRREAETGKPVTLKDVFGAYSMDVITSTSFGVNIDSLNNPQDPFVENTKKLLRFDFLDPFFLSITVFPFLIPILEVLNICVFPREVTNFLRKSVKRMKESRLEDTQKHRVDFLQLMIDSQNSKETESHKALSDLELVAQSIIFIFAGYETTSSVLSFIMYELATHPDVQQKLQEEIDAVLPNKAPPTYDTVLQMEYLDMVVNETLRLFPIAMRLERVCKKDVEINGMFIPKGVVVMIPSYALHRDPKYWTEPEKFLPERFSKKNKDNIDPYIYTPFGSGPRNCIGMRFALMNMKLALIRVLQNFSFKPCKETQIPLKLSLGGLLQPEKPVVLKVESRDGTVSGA

[28] = molecular target: Cytochrome P450 2C19 (Homo sapiens, UniProt P33261); assay: Inhibition of CYP2C19 (unknown origin); format: ADME
[29] = molecular target: Voltage-dependent L-type calcium channel subunit alpha-1C (Homo sapiens, UniProt Q13936); assay: Inhibition of human Cav1.2
Chain of Voltage-dependent L-type calcium channel subunit alpha-1C (Q13936 whole entry): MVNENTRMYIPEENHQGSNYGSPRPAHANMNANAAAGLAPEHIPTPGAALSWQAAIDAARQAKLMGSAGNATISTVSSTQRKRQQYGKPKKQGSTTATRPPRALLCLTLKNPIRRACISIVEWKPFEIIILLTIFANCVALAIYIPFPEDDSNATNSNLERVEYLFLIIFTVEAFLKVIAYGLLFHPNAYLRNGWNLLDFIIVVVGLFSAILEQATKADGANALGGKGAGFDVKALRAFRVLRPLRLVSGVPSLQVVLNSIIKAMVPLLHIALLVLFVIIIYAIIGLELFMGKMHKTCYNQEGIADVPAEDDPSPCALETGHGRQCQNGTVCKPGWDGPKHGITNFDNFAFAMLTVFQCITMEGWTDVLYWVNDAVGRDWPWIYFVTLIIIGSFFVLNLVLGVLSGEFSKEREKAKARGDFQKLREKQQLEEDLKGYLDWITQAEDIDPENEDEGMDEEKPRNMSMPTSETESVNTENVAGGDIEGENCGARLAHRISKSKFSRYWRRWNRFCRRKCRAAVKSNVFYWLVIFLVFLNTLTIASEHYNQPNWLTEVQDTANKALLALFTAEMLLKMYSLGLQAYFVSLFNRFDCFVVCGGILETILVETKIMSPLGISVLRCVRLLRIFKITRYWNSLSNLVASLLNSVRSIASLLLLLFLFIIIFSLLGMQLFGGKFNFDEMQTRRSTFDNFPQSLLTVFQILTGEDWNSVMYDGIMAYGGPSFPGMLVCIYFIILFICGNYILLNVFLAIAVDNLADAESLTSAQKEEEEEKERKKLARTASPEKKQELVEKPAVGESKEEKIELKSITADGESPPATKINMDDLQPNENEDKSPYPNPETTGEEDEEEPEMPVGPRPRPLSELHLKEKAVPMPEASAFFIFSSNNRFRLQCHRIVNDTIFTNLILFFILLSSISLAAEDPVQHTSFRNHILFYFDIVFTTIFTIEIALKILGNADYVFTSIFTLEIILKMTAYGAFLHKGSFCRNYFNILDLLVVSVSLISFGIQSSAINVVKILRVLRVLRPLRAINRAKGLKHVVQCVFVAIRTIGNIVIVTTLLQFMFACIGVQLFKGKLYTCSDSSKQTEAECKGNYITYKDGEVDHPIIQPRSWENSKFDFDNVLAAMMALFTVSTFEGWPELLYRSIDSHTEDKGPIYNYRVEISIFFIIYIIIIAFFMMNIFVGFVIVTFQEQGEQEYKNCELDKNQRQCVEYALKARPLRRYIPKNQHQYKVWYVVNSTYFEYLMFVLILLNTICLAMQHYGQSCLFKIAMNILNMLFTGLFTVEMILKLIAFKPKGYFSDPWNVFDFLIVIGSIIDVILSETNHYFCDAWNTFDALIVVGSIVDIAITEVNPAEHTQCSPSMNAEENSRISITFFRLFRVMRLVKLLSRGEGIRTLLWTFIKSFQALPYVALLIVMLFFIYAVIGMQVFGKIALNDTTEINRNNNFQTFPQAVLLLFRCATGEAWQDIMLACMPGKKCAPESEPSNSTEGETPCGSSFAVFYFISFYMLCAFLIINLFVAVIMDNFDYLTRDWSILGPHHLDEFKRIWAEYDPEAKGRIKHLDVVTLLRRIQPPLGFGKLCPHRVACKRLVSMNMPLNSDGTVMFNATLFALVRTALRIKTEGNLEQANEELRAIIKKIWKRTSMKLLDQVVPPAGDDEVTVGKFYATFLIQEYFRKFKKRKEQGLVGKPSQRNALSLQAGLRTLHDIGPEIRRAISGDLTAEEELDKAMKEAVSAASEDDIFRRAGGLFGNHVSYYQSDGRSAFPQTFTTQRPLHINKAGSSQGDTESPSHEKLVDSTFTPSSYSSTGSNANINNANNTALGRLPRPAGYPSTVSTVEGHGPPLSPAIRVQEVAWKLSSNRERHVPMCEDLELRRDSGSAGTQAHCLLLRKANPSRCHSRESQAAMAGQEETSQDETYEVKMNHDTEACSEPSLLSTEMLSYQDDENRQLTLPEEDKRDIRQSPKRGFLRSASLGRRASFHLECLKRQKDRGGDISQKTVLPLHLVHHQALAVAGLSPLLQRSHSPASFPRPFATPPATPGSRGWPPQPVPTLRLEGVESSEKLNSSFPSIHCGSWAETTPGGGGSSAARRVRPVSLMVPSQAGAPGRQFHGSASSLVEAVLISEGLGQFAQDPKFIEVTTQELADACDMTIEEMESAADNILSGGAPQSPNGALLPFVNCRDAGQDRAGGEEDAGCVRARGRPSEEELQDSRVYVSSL

[30] = molecular target: T2, Cytochrome P450 1A2 (Homo sapiens, UniProt P05177); assay: Inhibition of CYP1A2 (unknown origin); format: ADME
T2 sequence (P05177 whole entry): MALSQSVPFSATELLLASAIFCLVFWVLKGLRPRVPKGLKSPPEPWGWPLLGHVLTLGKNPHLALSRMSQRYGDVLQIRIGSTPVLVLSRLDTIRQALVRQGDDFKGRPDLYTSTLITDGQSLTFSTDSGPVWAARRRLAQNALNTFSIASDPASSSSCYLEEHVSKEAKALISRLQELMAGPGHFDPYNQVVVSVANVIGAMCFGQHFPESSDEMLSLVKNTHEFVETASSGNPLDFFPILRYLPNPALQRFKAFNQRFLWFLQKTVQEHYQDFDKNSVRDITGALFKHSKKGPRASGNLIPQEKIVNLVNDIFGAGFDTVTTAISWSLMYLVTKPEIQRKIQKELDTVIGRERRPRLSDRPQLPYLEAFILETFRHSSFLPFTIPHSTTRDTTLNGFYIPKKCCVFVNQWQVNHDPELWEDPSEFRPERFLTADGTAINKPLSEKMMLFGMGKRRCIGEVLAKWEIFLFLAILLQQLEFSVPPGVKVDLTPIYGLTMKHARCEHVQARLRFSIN

C[C@]1(CN2Cc3nc(-c4ccc(F)cc4)sc3C2)CN=C(N)O1
half-life [1]: 1.25 h | Cmax [2]: 141 nM | Vd [3]: 4.52 L/kg | MIC [4]: 0.035 µg/mL (≈ 0.105 µM) | IC50 [5]: > 13.3 µM | Activity [6]: 1 log10CFU | solubility [7]: 13.5 µM (≈ 4.49 µg/mL) | bioavailability [8]: 26.4% | clearance [9]: 24.6 mL/min/kg | IC50 [10]: > 13.3 µM | Papp A→B [11]: 20.9 ×10⁻⁶ cm/s | Drug uptake [12]: Active | half-life [13]: 3.25 h | half-life [14]: 1.05 h | Cmax [15]: 526 nM | efflux ratio [16]: 0.76 | IC50 [17]: > 13.3 µM | MIC [18]: 5.63 µg/mL (≈ 16.9 µM) | AUClast [19]: 1910 ng·h | Papp B→A [20]: 15.8 ×10⁻⁶ cm/s | Vd [21]: 2.69 L/kg | Drug uptake [22]: Active | IC50 [23]: 80.6 µM | fraction unbound [24]: 0.036 | MIC [25]: 0.109 µg/mL (≈ 0.328 µM) | Activity [26]: Non-Toxic | IC50 [27]: > 100 µM | IC50 [28]: > 100 µM | IC50 [29]: > 13.3 µM | IC50 [30]: > 100 µM
